{"source": "patent US20250248960A1", "about": "“Methods for Providing Rapid Relief of Motor Fluctuations in a Parkinson's Disease Patient” (priority 2012, published 2025)", "test_system": "Parkinson's disease patients", "assay": "Phase 2 study: plasma levodopa concentrations compared to UPDRS scores (off/on state)", "assay_type": "in vivo, human", "conditions": "plasma levels vs UPDRS scores, FIG. 8", "protocol": "The twenty four (24) patients treated in this study underwent serial evaluations of L-dopa plasma levels, motor response, and safety at each visit. The patients were administered the study drug in the OFF state with the serial evaluations starting prior to dosing and continuing for up to 180 minutes post-dose. Motor function was measured using a tapping test, the Unified Parkinson's Disease Rating Scale Part III (UPDRS III), and subjective evaluation of “meaningful” ON and OFF. Safety parameters monitored included pulmonary function, clinical laboratory data, EGCs, and vital signs (blood pressure, heart rate, and orthostatic blood pressure). This study was designed to measure the time, magnitude, and durability of pulmonary levodopa's effect on motor function, to evaluate the safety and tolerability of pulmonary levodopa in Parkinson's disease patients.\nIn FIG. 8, patient's plasma levodopa concentrations are being compared to UPDRS scores. UPDRS is a standard test for Parkinson's disease patients to test their response to drug treatment and their disease progression. […] As little as 200-400 ng/ml of levodopa plasma concentration makes the difference between being in the off state and being in the on state. […]"}
{"molecule": "N[C@@H](Cc1ccc(O)c(O)c1)C(=O)O", "note": "[L-Dopa, levodopa]", "values": [{"measurement": "levodopa plasma concentration difference between being in the off state and being in the on state", "value": "200 to 400", "unit": "ng/mL"}]}
